Assay results as given in PubChem BioAssay (NCI).
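96-well plates; 48 h exposure; 5 concentrations. Endpoints by linear interpolation between flanking doses. Not reached: highest tested concentration assigned. TGI marks complete inhibition of growth.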

How the values were obtained:
Test in all cases: NCI anticancer screen, dose series, 48 h
LOX IMVI melanoma = test system: LOX IMVI melanoma
UO-31 renal = test system: UO-31 renal
SF-539 CNS = test system: SF-539 CNS
T-47D breast = test system: T-47D breast
COLO 205 colon = test system: COLO 205 colon
UACC-62 melanoma = test system: UACC-62 melanoma
DU-145 prostate = test system: DU-145 prostate
EKVX NSCLC = test system: EKVX NSCLC
HL-60(TB) leukemia = test system: HL-60(TB) leukemia
HOP-92 NSCLC = test system: HOP-92 NSCLC

| SMILES | TGI (LOX IMVI melanoma) [µM] | TGI (UO-31 renal) [µM] | TGI (SF-539 CNS) [µM] | TGI (T-47D breast) [µM] | TGI (COLO 205 colon) [µM] | TGI (UACC-62 melanoma) [µM] | TGI (DU-145 prostate) [µM] | TGI (EKVX NSCLC) [µM] | TGI (HL-60(TB) leukemia) [µM] | TGI (HOP-92 NSCLC) [µM] |
| --- | --- | --- | --- | --- | --- | --- | --- | --- | --- | --- |
| COc1cc2nc(-c3cccs3)nc(N3C(c4cc(OC)c(OC)c(OC)c4)=NNC(=O)c4ccccc43)c2cc1OC | 45.8 | > 100 | 44.6 | > 100 | > 100 | 35.8 | 91.1 | 73.5 | > 100 | > 100 |
| CC(C)(CO)CNc1cc(Cl)nc(N)n1 | > 100 | > 100 | > 100 | > 100 | > 100 | > 100 | > 100 | > 100 | > 100 | > 100 |
| Cc1cc(S(=O)(=O)Nc2n[nH]c(Nc3ccccc3)n2)c(SSc2cc(Cl)c(C)cc2S(=O)(=O)Nc2n[nH]c(Nc3ccccc3)n2)cc1Cl | > 100 | > 100 | > 10 | > 100 | > 100 | > 100 | > 100 | > 100 | 61.1 | – |
| COc1ccc(C2=Nc3c(nc(SC)[nH]c3=O)NC(c3ccccc3)C2)cc1 (centres undefined) | > 100 | 56.3 | 37.3 | – | 34.8 | – | 82.7 | 67.8 | 42.5 | > 100 |
| Fc1ccc2c(c1)nc1n2C(c2c(F)cccc2F)SC1 (centres undefined) | > 100 | > 100 | > 100 | > 100 | > 100 | > 100 | > 100 | > 100 | 70 | > 100 |
| CNC(=O)C1OC(n2cnc3c(NCc4cccc(I)c4)nc(Cl)nc32)C(O)C1O (centres undefined) | 27.2 | 24.6 | 23 | 61.8 | 82.6 | 24 | 50.4 | 31.5 | > 100 | – |
| CCOC(=O)C1CCCN1C(=O)c1ccccc1Cl (centres undefined) | > 100 | > 100 | > 100 | > 100 | – | 88.3 | > 100 | > 100 | > 100 | > 100 |
| CC1C(c2ccccc2)NC(c2ccccc2)CC1(N)C#N (centres undefined) | > 100 | > 100 | > 100 | > 100 | > 100 | > 100 | > 100 | > 100 | > 100 | > 100 |
| Cc1ccsc1/C=N/Nc1cc(C)c2ccccc2n1 | 25.9 | 36.1 | – | > 100 | 20.9 | 26.6 | 32 | 28.8 | 34.4 | 28.1 |
| Cc1ccc(S(=O)(=O)N/N=C\c2c3ccccc3[n+](C)c3ccccc23)cc1 | 52.9 | 88.9 | 54 | – | – | 74.6 | – | > 100 | 59.6 | 73.2 |
| O=C1Nc2ccccc2SC1=C(C(=O)c1ccccc1)C(=O)c1ccccc1 | > 100 | > 100 | > 100 | > 100 | > 88 | 51.6 | > 100 | > 100 | 0.82 | 99.9 |
| Nc1ncc2c(n1)-c1ccccc1OC2 | > 100 | > 100 | > 100 | – | > 100 | > 100 | – | > 100 | > 100 | > 100 |
| ClC1=C(Cl)C2OC3C=CCC3OC2C(Cl)=C1Cl (centres undefined) | > 100 | > 100 | > 100 | > 100 | – | – | > 100 | > 100 | > 100 | > 100 |
| O=S(=O)(O)c1cc(N=[N+]([O-])c2ccc(N=Nc3ccccc3)cc2S(=O)(=O)O)ccc1/C=C/c1ccc(N=[N+]([O-])c2ccc(N=Nc3ccccc3)cc2S(=O)(=O)O)cc1S(=O)(=O)O | > 100 | > 100 | > 31.6 | – | > 100 | > 100 | – | > 100 | > 100 | > 100 |
| Cc1oc2nc(N(C)C)n3cnnc3c2c1C | – | > 100 | > 100 | > 100 | > 100 | > 100 | > 100 | > 100 | > 100 | > 100 |
| Nc1ccc(C(=O)O)cc1 | > 100 | > 100 | > 100 | > 100 | > 100 | – | > 100 | > 100 | > 100 | > 100 |
| O=C(NNc1nc(-c2ccccc2)cs1)Nc1ccccc1 | – | 75.2 | – | 66.8 | 56.4 | 40.2 | 89.1 | > 100 | – | – |
| NS(=O)(=O)c1ccc(NCc2nc3ccccc3[nH]2)cc1 | > 100 | > 100 | > 100 | > 100 | > 100 | > 100 | > 100 | > 100 | – | > 100 |
| CC1=NN2CCC(=O)N=C2S1 | > 100 | – | > 100 | > 100 | > 100 | > 100 | > 100 | > 100 | > 100 | > 100 |
| CC(C)N1[C@@H]2CCCC[C@H]2N(C(C)C)[P+]1=O | – | > 100 | > 100 | > 100 | > 100 | > 100 | > 100 | > 100 | – | > 100 |
| Cc1cc(OCc2nnc3n2N=C(c2cc(F)c(Cl)cc2Cl)/C(=C/c2ccc(-c4ccc(Cl)cc4)o2)S3)ccc1Cl | > 50 | > 50 | – | > 50 | > 50 | > 50 | > 50 | > 50 | > 50 | – |
| O=c1onc(Nc2ccccc2)n1-c1ccccc1 | > 100 | > 100 | > 100 | – | > 100 | > 100 | – | > 100 | > 100 | > 100 |
| CCOP(=O)(Cc1nc(C#N)c(N)o1)OCC | > 100 | – | – | – | > 100 | > 100 | > 100 | > 100 | > 100 | > 100 |
| OC(CCl)CN1CC[N+]2(CC1)CC[N+]1(CCN(CC(O)CCl)CC1)CC2 (centres undefined) | – | > 50 | > 50 | – | > 50 | – | – | > 50 | > 50 | > 50 |
